This is an account of results in patent US10851097B2, “4,5,6,7-tetrahydro-1H-imidazo[4,5-c]pyridine and 1,4,5,6,7,8-hexahydroimidazo[4,5-d]azepine derivatives as janus kinase inhibitors” (Topivert Pharma Limited, priority 2015, dated 2020).

As a reminder, the IC50 is the concentration at which inhibition is half-maximal. Low values mean greater potency, high ones weaker potency.

Data set [1] has as its system CD3/IL2 stimulated PBMC cells. The data set is described as follows: IFNγ release from CD3/IL2 stimulated PBMC cells (assay (a)). The class given is cell-based. As to conditions: Homo sapiens, CD3/IL2 stimulation, 48 h, ELISA. As for the experimental part: (a) IFNγ Release from CD3/IL2 Stimulated PBMC Cells
PBMCs from healthy subjects are separated from whole blood using a density gradient (Lymphoprep, Axis-Shield Healthcare). Cells are added to a 96 well plate, and compound at the desired concentration added 2 hours prior to stimulation with a mixture of monoclonal antibody to CD3 (1 μg/ml, eBioscience) and human recombinant IL2 (10 ng/ml, Peprotech). After 48 hours incubation under normal tissue culture conditions, supernatants are collected and IFNγ release determined by Sandwich ELISA (Duo-set, R&D System). The IC50 is determined from the dose response curve.
(ELISA stands for enzyme-linked immunosorbent assay.)

The test system of a further data set is Jurkat cells. Briefly: Cell cytotoxicity assay in Jurkat cells (assay (c)). The class given is cell-based, human. As to conditions: 24 h, propidium iodide, normalised to DMSO control. As for the experimental part: (c) Cell Cytotoxicity Assay
1×10^5 Jurkat cells (immortalised human T lymphocytes) are added to the appropriate number of wells of a 96 well plate in 100 μL of media (RPMI supplemented with 10% foetal bovine serum). 1 μL of DMSO control (final concentration 1.0% v/v) or test compound (final concentration 20, 5 or 1 μg/mL) is added to the wells and incubated at 37° C., 5% CO2. After 24 hours, the plate is centrifuged at 1200 rpm for 3 minutes and the supernatant discarded. Cells are then resuspended in 150 μL (final concentration 7.5 μg/mL) of propidium iodide (PI) in PBS and incubated at 37° C., 5% CO2 for 15 minutes. After 15 minutes, cells are analysed by flow cytometry (BD accuri) using the FL3 window. The % viability is calculated as the % of cells that are PI negative in the test wells normalised to the DMSO control.

On to `CCc1cc(O)c(F)cc1-c1ccc2c(-c3nc4c([nH]3)CCN(C(=O)c3cnc(N5C[C@H](O)[C@@H](O)[C@H](O)[C@H]5CO)cn3)C4)n[nH]c2c1` (stereo in doubt) [Example 2(s), (2-(6-(2-ethyl-5-fluoro-4-hydroxyphenyl)-1H-indazol-3-yl)-6,7-dihydro-1H-imidazo[4,5-c]pyridin-5(4H)-yl)(5-((2R,3R,4R,5S)-3,4,5-trihydroxy-2-(hydroxymethyl)piperidin-1-yl)pyrazin-2-yl)methanone], for which half-maximal inhibition in data set [1] (IC50) was put at 694 nM.
`CCc1cc(O)c(F)cc1-c1ccc2c(-c3nc4c([nH]3)CCN(C(=O)c3cnc(N(C)CCCC(=O)O)cn3)C4)n[nH]c2c1` [Example 2(a), 4-((5-(2-(6-(2-ethyl-5-fluoro-4-hydroxyphenyl)-1H-indazol-3-yl)-4,5,6,7-tetrahydro-1H-imidazo[4,5-c]pyridine-5-carbonyl)pyrazin-2-yl)(methyl)amino)butanoic acid] registered an IC50 in data set [1] of 732 nM.
Still for that read-out and setting: in the case of `CCc1cc(O)c(F)cc1-c1ccc2c(-c3nc4c([nH]3)CCN(C(=O)c3cnc(NCCN5CCC(O)CC5)cn3)C4)n[nH]c2c1` [Example 2(b), (2-(6-(2-ethyl-5-fluoro-4-hydroxyphenyl)-1H-indazol-3-yl)-1,4,6,7-tetrahydro-5H-imidazo[4,5-c]pyridin-5-yl)(5-((2-(4-hydroxypiperidin-1-yl)ethyl)amino)pyrazin-2-yl)methanone] it was 87 nM; in that of `CCc1cc(O)c(F)cc1-c1ccc2c(-c3nc4c([nH]3)CCN(C(=O)c3cnc(N(C)Cc5ccccn5)cn3)C4)n[nH]c2c1` [Example 2(c), (2-(6-(2-ethyl-5-fluoro-4-hydroxyphenyl)-1H-indazol-3-yl)-1,4,6,7-tetrahydro-5H-imidazo[4,5-c]pyridin-5-yl)(5-(methyl(pyridin-2-ylmethyl)amino)pyrazin-2-yl)methanone], 37 nM.
In turn, `CCc1cc(O)c(F)cc1-c1ccc2c(-c3nc4c([nH]3)CCN(C(=O)c3cnc(NCCN5CC[S+]([O-])CC5)cn3)C4)n[nH]c2c1` [Example 2(d), (2-(6-(2-ethyl-5-fluoro-4-hydroxyphenyl)-1H-indazol-3-yl)-1,4,6,7-tetrahydro-5H-imidazo[4,5-c]pyridin-5-yl)(5-((2-(1-oxidothiomorpholino)ethyl)amino)pyrazin-2-yl)methanone] showed an IC50 in data set [1] of 270 nM.
`CCc1cc(O)c(F)cc1-c1ccc2c(-c3nc4c([nH]3)CCN(C(=O)c3cnc(N5CC[S+]([O-])CC5)cn3)C4)n[nH]c2c1` [Example 2(e), (2-(6-(2-ethyl-5-fluoro-4-hydroxyphenyl)-1H-indazol-3-yl)-1,4,6,7-tetrahydro-5H-imidazo[4,5-c]pyridin-5-yl)(5-(1-oxildothiomorpholino)pyrazin-2-yl)methanone]: in data set [1], the IC50 is 57.6 nM. Besides, the “% viability at 1 μg/mL” value with Jurkat cells stood at 96%.
In the same order, the values of `CCc1cc(O)c(F)cc1-c1ccc2c(-c3nc4c([nH]3)CCN(C(=O)c3cnc(N5CCN(CCN(C)C)CC5)cn3)C4)n[nH]c2c1` [Example 2(f), (5-(4-(2-(dimethylamino)ethyl)piperazin-1-yl)pyrazin-2-yl)(2-(6-(2-ethyl-5-fluoro-4-hydroxyphenyl)-1H-indazol-3-yl)-1,4,6,7-tetrahydro-5H-imidazo[4,5-c]pyridin-5-yl)methanone] are 49.3 nM and 16%.
As for `CCc1cc(O)c(F)cc1-c1ccc2c(-c3nc4c([nH]3)CCN(C(=O)c3cnc(NCCC5(O)CCN(C)CC5)cn3)C4)n[nH]c2c1` [Example 2(g), (2-(6-(2-ethyl-5-fluoro-4-hydroxyphenyl)-1H-indazol-3-yl)-1,4,6,7-tetrahydro-5H-imidazo[4,5-c]pyridin-5-yl)(5-((2-(4-hydroxy-1-methylpiperidin-4-yl)ethyl)amino)pyrazin-2-yl)methanone], the IC50 in data set [1] was determined as 271 nM.
In turn, `CCc1cc(O)c(F)cc1-c1ccc2c(-c3nc4c([nH]3)CCN(C(=O)c3cnc(N(CCOC)CCOC)cn3)C4)n[nH]c2c1` [Example 2(i), (5-(bis(2-methoxyethyl)amino)pyrazin-2-yl)(2-(6-(2-ethyl-5-fluoro-4-hydroxyphenyl)-1H-indazol-3-yl)-1,4,6,7-tetrahydro-5H-imidazo[4,5-c]pyridin-5-yl)methanone] gave an IC50 in data set [1] of 14.5 nM. Moreover, the “% viability at 1 μg/mL” value in the data set with Jurkat cells was found to be 53%.
In the same order, the values of `CCc1cc(O)c(F)cc1-c1ccc2c(-c3nc4c([nH]3)CCN(C(=O)c3cnc(N5CCN(CCn6ccnc6)CC5)cn3)C4)n[nH]c2c1` [Example 2(j), (5-(4-(2-(1H-imidazol-1-yl)ethyl)piperazin-1-yl)pyrazin-2-yl)(2-(6-(2-ethyl-5-fluoro-4-hydroxyphenyl)-1H-indazol-3-yl)-1,4,6,7-tetrahydro-5H-imidazo[4,5-c]pyridin-5-yl)methanone] are 5.3 nM and 12%.
`CCc1cc(O)c(F)cc1-c1ccc2c(-c3nc4c([nH]3)CCN(C(=O)c3cnc(N5CCN(CCO)CC5)cn3)C4)n[nH]c2c1` [Example 2(l), (2-(6-(2-ethyl-5-fluoro-4-hydroxyphenyl)-1H-indazol-3-yl)-6,7-dihydro-1H-imidazo[4,5-c]pyridin-5(4H)-yl)(5-(4-(2-hydroxyethyl)piperazin-1-yl)pyrazin-2-yl)methanone]: the IC50 in data set [1] is 9.4 nM. For the same compound, in the data set on Jurkat cells, the “% viability at 1 μg/mL” value came to 10%.
On to `CCc1cc(O)c(F)cc1-c1ccc2c(-c3nc4c([nH]3)CCN(C(=O)c3cnc(NCCOCCOCCOC)cn3)C4)n[nH]c2c1` [Example 2(m), (2-(6-(2-ethyl-5-fluoro-4-hydroxyphenyl)-1H-indazol-3-yl)-6,7-dihydro-1H-imidazo[4,5-c]pyridin-5(4H)-yl)(5-((2-(2-(2-methoxyethoxy)ethoxy)ethyl)amino)pyrazin-2-yl)methanone], for which the IC50 in data set [1] came out at 15.2 nM. The “% viability at 1 μg/mL” value in the data set on Jurkat cells is on record as 88%.
Consider `CCc1cc(O)c(F)cc1-c1ccc2c(-c3nc4c([nH]3)CCN(C(=O)c3cnc(N(C)CCN(C)C(C)=O)cn3)C4)n[nH]c2c1` [Example 2(n), N-(2-((5-(2-(6-(2-ethyl-5-fluoro-4-hydroxyphenyl)-1H-indazol-3-yl)-4,5,6,7-tetrahydro-1H-imidazo[4,5-c]pyridine-5-carbonyl)pyrazin-2-yl)(methy)amino)ethyl)-N-methylacetamide], for which the IC50 in data set [1] turned out to be 29.2 nM. Also, the “% viability at 1 μg/mL” value in the data set with Jurkat cells was determined as 87%.
For the compound `CCc1cc(O)c(F)cc1-c1ccc2c(-c3nc4c([nH]3)CCN(C(=O)c3cnc(N5CC(CO)C5)cn3)C4)n[nH]c2c1` [Example 2(o), (2-(6-(2-ethyl-5-fluoro-4-hydroxyphenyl)-1H-indazol-3-yl)-6,7-dihydro-1H-imidazo[4,5-c]pyridin-5(4H)-yl)(5-(3-(hydroxymethyl)azetidin-1-yl)pyrazin-2-yl)methanone], in data set [1], half-maximal inhibition (IC50) was put at 22.5 nM. In addition, the “% viability at 1 μg/mL” value in the data set on Jurkat cells turned out to be 62%.
On to `CCc1cc(O)c(F)cc1-c1ccc2c(-c3nc4c([nH]3)CCN(C(=O)c3cnc(N(CCO)CCO)cn3)C4)n[nH]c2c1` [Example 2(p), (5-(bis(2-hydroxyethyl)amino)pyrazin-2-yl)(2-(6-(2-ethyl-5-fluoro-4-hydroxyphenyl)-1H-indazol-3-yl)-6,7-dihydro-1H-imidazo[4,5-c]pyridin-5(4H)-yl)methanone], for which inhibition in data set [1] was half-maximal at 154 nM (IC50).
In the case of `CCc1cc(O)c(F)cc1-c1ccc2c(-c3nc4c([nH]3)CCN(C(=O)c3cnc(NCCS(C)(=O)=O)cn3)C4)n[nH]c2c1` [Example 2(q), (2-(6-(2-ethyl-5-fluoro-4-hydroxyphenyl)-1H-indazol-3-yl)-6,7-dihydro-1H-imidazo[4,5-c]pyridin-5(4H)-yl)(5-((2-(methylsulfonyl)ethyl)amino)pyrazin-2-yl)methanone], half-maximal inhibition in data set [1] (IC50) was put at 113 nM. Besides, in the data set on Jurkat cells, the “% viability at 1 μg/mL” value was 94%.
In the case of `CCc1cc(O)c(F)cc1-c1ccc2c(-c3nc4c([nH]3)CCN(C(=O)c3cnc(NCCN5CCCC5=O)cn3)C4)n[nH]c2c1` [Example 2(r), 1-(2-((5-(2-(6-(2-ethyl-5-fluoro-4-hydroxyphenyl)-1H-indazol-3-yl)-4,5,6,7-tetrahydro-1H-imidazo[4,5-c]pyridine-5-carbonyl)pyrazin-2-yl)amino)ethyl)pyrrolidin-2-one], in data set [1], inhibition was half-maximal at 90.8 nM (IC50).
Still for that read-out and setting: for `CCc1cc(O)c(F)cc1-c1ccc2c(-c3nc4c([nH]3)CCN(C(=O)c3cnc(N(C)CCN5CCOC5=O)cn3)C4)n[nH]c2c1` [Example 2(u), 3-(2-((5-(2-(6-(2-ethyl-5-fluoro-4-hydroxyphenyl)-1H-indazol-3-yl)-4,5,6,7-tetrahydro-1H-imidazo[4,5-c]pyridine-5-carbonyl)pyrazin-2-yl)(methyl)amino)ethyl)oxazolidin-2-one] the value was 73.8 nM; for `CCc1cc(O)c(F)cc1-c1ccc2c(-c3nc4c([nH]3)CCN(C(=O)c3cnc(N5C[C@@H]6C(=O)NC(=O)[C@@H]6C5)cn3)C4)n[nH]c2c1` [Example 2(w), (3aR,6aS)-5-(5-(2-(6-(2-ethyl-5-fluoro-4-hydroxyphenyl)-1H-indazol-3-yl)-4,5,6,7-tetrahydro-1H-imidazo[4,5-c]pyridine-5-carbonyl)pyrazin-2-yl)tetrahydropyrrolo[3,4-c]pyrrole-1,3(2H,3aH)-dione], 942 nM.
